Test results: patent US6852751B2, “Difluorobutyric acid metalloprotease inhibitors” (The Procter & Gamble Company, priority 2000, dated 2005)

Tested on: human subject suffering from rheumatoid arthritis
Assay: Treatment of a human subject with rheumatoid arthritis, oral tablets (Example A)
Assay type: in vivo
Details: tablet with 15 mg compound, three tablets per day orally for 2 years
Description: A tablet composition for oral administration, according to the present invention, is made comprising:
A human subject weighing 60 kg (132 lbs), suffering from rheumatoid arthritis, is treated by a method of this invention. Specifically, for 2 years, a regimen of three tablets per day is administered orally to said subject.

## COc1ccc(-c2ccc(C(F)(F)CCC(=O)O)cc2)cc1 [Example 1, 4,4-Difluoro-4-(4′-methoxy-biphenyl-4-yl)-butyric Acid]
  examination at the end of the treatment period: inflammation, mobility, pain: reduced inflammation and improved mobility without concomitant pain
